Assays:
[1] = test system: HSCs (bone marrow MNCs); assay: cobblestone area forming cells (CAFC) assay with limiting dilution assay (LDA); type: cell-based, mouse; settings: day 35
Method: We also investigated whether the increased number of phenotypic SLAM^+LT-HSCs in short-term culture assays was correlated with an increase in functional LT-HSCs. Cobblestone area forming cells (CAFC) assay combined with limiting-dilution assays (LDA) were performed to measure the frequency of HSCs[19][22][30]. Compared with the control group (HSC frequency is 1 in 112,559 of the original plated cells), the frequency of HSC at day 35 (indicating the activity of hematopoietic reconstitution capacity) was 2.7-fold and 3.0-fold higher in the cultures treated with XIE18–6 (HSC frequency is 1 in 42,490 of the original plated cells) and compound 40 (HSC frequency is 1 in 37,524 of the original plated cells) (p < 0.001, Fig. 3C), respectively.
Freshly isolated bone marrow MNCs from mice, 6–8 weeks old, were plated in a 24-well plate with 1 mL Dexter’s medium at a density of 2 × 10^6 cells per mL in the absence or presence of different doses of the tested compounds. The culture was maintained at 33 °C with 5% CO2. The number of cobblestone areas (CAs) was counted weekly. The medium was also replaced with half fresh medium on a weekly basis. For the limiting dilution analysis (LDA) of the test cells, different limiting doses were plated on the irradiated stromal cells in 96-well plates containing 200 μL of M5300 medium (StemCell Technologies) supplemented with 10^−6 M hydrocortisone. Each group was done with 20 replicates well. Small-molecule compounds were added to the co-culture system at different doses. Half of the medium in each well was replaced with fresh medium containing the test compounds weekly. The existence of CA in each well was evaluated under an inverted microscope at weekly intervals for 5 weeks. Based on the Poisson distribution of the negative wells, the frequency of long-term initiating cells was calculated with L-Calc software (StemCell Technologies).

[2] = test system: LT-repopulating HSCs (CD34-LKS cells); assay: competitive bone marrow transplantation (cBMT) assay; type: in vivo, mouse
Method: Figure 3 Treatment of c-Kit-enriched murine BM cells with p18SMI compounds enhances HSC expansion. (A) The average number of total cells, HSPCs (Lin^−Sca1^+) and long term (LT)-HSCs (Lin^-Sca1^+CD48^−CD150^+) were analyzed by flow cytometry. (B) Single CD34^−LKS cell were deposited into each well of a 96-well plate, along with differentiation medium plus different concentrations of p18SMI compounds to show the dose-response effect of p18SMI compounds. (C) CAFC-LDA assay of cells treated with XIE18-6, compound 40 and DMSO to reveal the frequency of primitive HSCs. Above data (A–C) is mean ± SEM for all experiments of two or more and were performed in duplicate or triplicate. (D) Experimental design for transplantation (n = 10). CD34^-LKS cells were sorted into 96-well plates at 50 cells/well and cultured for 3 days with cytokine plus 20 μM of compounds or DMSO. Cells from each well were mixed with 2 × 10^6 freshly isolated bone marrow MNCs and co-transplanted by tail-vein injection into lethally irradiated CD45.2 recipient mice. 16 weeks after transplantation, bone marrow MNCs were stained to determine the engraftment level of donor cells. Bone marrow MNCs were also stained for lineage analysis. Multi-lineage differentiation was examined by flow cytometry. GM, T and B indicate lineages for myeloid, T and B cells, respectively. (E,F) The engraftment levels at 16 weeks after primary transplantation, and multi-lineage differentiation profile. Data is mean ± SEM for all experiments (***p < 0.001, **p < 0.01). TEXT PRINTED IN THE PICTURE: (E) #40: Engrafment%: *** 5.93X | (E) XIE18-6: Engrafment%: ** 3.01X DOUBTS OF THE COPYIST ABOUT THIS PICTURE: Panel E: 5.93X and 3.01X are printed on brackets running from #40 and from XIE18-6 to DMSO. No measure is printed beside them, so the axis label 'Engrafment%' was used as the measure.
The increased frequency and total number of functional LT-HSCs after treatment with p18SMI compounds was further confirmed by competitive bone marrow transplantation (cBMT) assay (Fig. 3D). CD34^-LKS cells were first sorted and cultured w/o p18SMI compound for 3 days. Then the cultured cells were gathered and co-transplanted into lethally irradiated mice with competitor cells. […] Moreover, the engraftment of the group treated with compound 40 was double of that of the group treated with XIE18–6.

[3] = test system: LT-HSCs; assay: dependence of HSC expansion on CDK4/6 versus CDK2 (co-treatment with CDK inhibitors); type: cell-based, mouse
From the text: To assess a direct role for p18-CDK6 signaling in HSCs expansion induced by compound 40, we used the CDK4/6-specific inhibitor PD0332991 to block CDK6 activation. As a control, we blocked CDK2 with SNS032, a CDK2 selective inhibitor. […] So here we wanted to explore whether p18SMI compound’s HSCs expansion effect was abrogated by CDK4/6 inhibitor or CDK2 inhibitor.

Question: What does the source list for `O=C([O-])c1ccc(S(=O)(=O)NC2CCCCC2)cc1.[Na+]` [Compound 40, sodium 4-(N-cyclohexylsulfamoyl)benzoate]?
Answer: HSC frequency (1 in x of the original plated cells) [1]: 37,524; frequency of HSC, fold higher than control group [1]: 3.0 fold; engraftment relative to the group treated with XIE18–6 ([2]; 16 weeks after transplantation): double; multi-lineage differentiation profile (GM, T, B) compared with the control group ([2]; 16 weeks after transplantation): did not cause predominant growth of any specific lineages; increase in engraftment compared with the DMSO control group ([2]; CD34-LKS cells cultured 3 days with 20 μM compound, co-transplanted with competitor cells into lethally irradiated mice, bone marrow 16 weeks after transplantation): 5.93 fold; increase in engraftment compared with the uncultured group ([2]; cells cultured 3 days with 20 μM compound, 16 weeks after transplantation): 4.34 fold; number of LT-HSCs ([3]; in the PD0332991-treated group (CDK4/6-specific inhibitor)): failed to increase; number of LT-HSCs ([3]; in the SNS032-treated group (CDK2 selective inhibitor)): still enhanced

From PMC4683533, “Discovery of novel INK4C small-molecule inhibitors to promote human and murine hematopoietic stem cell ex vivo expansion” (Scientific Reports, 2015)
